Assay [1] has as its system RPS6KA3. Also noted: method as in Reinecke et al. (2023). The following applies: RPS6KA3, 5 cell line mix lysate, Kinobeads ε, ref Reinecke et al. (2023), cited from earlier work.
The test system of assay [2] is JAK1. The arrangement: method as in Reinecke et al. (2023). The note with it: JAK1, 5 cell line mix lysate, Kinobeads ε, ref Reinecke et al. (2023), cited from earlier work.
Assay [3] has as its system RPS6KA6. Also noted: method as in Klaeger et al. (2017). The note with it: lysate 4 cell line mix (Colo205, K-562, MV-4-11, and SK-N-BE(2)), Kinobeads y, ref Klaeger et al. (2017); cited from earlier work.
Assay [4] has as its system ERN2. The arrangement: method as in Klaeger et al. (2017). The note with it: ERN2, 4 cell line mix lysate, Kinobeads y, ref Klaeger et al. (2017); cited from earlier work.
Assay [5] concerns MAP4K3. Also noted: method as in Klaeger et al. (2017). The note with it: lysate 4 cell line mix (Colo205, K-562, MV-4-11, and SK-N-BE(2)), Kinobeads y, ref Klaeger et al. (2017); cited from earlier work.
Assay [6] has as its system RASSF5. The arrangement: method as in Klaeger et al. (2017). The following applies: RASSF5, 4 cell line mix lysate, Kinobeads y, ref Klaeger et al. (2017); cited from earlier work.
Assay [7] relates to PDO UME012. Put plainly: PDO viability assay (CellTiter-Glo, 72 h). Format: cell-based, human. The arrangement: Curve bottom: scale not given here. As for the experimental part: (§1) Primary patient-derived PDAC organoid (PDO) experiments were performed in the laboratories of Prof. Maximilian Reichert (University Hospital of the TU Munich, Germany, PDO set 1: B250, B535, B678) and Prof. Jens T. Siveke (University Hospital Essen, Germany; PDO set 2: UME008, UME012, UME051, UME053, UME060, UME061). PDOs were generated from surgical resection, EUS-guided fine needle biopsy (EUS-FNB), or ascites (Appendix Table S2). Surgical specimens were first minced with a sterile scalpel and subsequently washed with Anti-Anti solution and washing medium (PDO set 1), or vice versa (PDO set 2; Appendix Table S3). Biopsy samples were directly washed with an Anti-Anti solution and washing medium. Samples were digested using 1 ml of digestion medium at 37 °C while shaking, and the enzymatic reaction was stopped by adding 15 ml of washing medium (Appendix Table S3). If samples of PDO set 1 were blood-stained, tissue pellets were first incubated with ACK lysing buffer/red blood cells lysis buffer (Thermo Fisher Scientific) for 5 min and then digested using TrypLE (Thermo Fisher Scientific). The reversed procedure was applied for blood-stained samples of PDO set 2. For PDO generation from ascites, the material was first spun down at 500 × g for 5 min. Then, washing medium was added and the suspension was centrifuged at 300 × g for 5 min. If the pellet was blood-stained, ACK lysis buffer was added and incubated at room temperature.
(§2) For viability assays in PDOs, confluent organoids were removed from medium, and Matrigel was dissolved by adding 200 μl (PDO set 1) or 2 ml (PDO set 2) of Cell Recovery Solution (Corning), and additionally 500 μl of DPBS (PDO set 1 only). Samples were transferred into a falcon and incubated on ice for 30 min, followed by centrifugation at 300 × g at 4 °C for 5 min (after adding 10 ml washing medium for PDO set 2). Subsequently, TrypLE Express Enzyme (Thermo Fisher) was added to cell pellets and incubated for 2 × 5 min at 37 °C. The enzymatic reaction was quenched by DPBS (PDO set 1) or washing medium (PDO set 2), and samples were washed by centrifugation at 300 × g at 4 °C for 5 min. Five hundred cells/well were seeded in 384-well plates (Corning) in 50 μl of PDO medium containing 10% Matrigel. To allow PDO generation, cells were incubated for 4 days at 37 °C and 5% CO2. […] Experiments were pipetted manually (PDO set 1) or automatically using a TECAN D300e Digital Dispenser (HP; PDO set 2). Treatments were performed in eight replicates, except for PDO PPES045 (quadruplicates). After 72 h, cell viability was measured using the CellTiter-Glo Luminescent Cell Viability Assay (Promega) diluted 1:5 in the final volume of the well. After 20 min of incubation at room temperature under gentle shaking, the acquisition was performed in the microplate reader VantaSTAR (BMG Labtech) using 3000 gain for the amplification measurement of a detected signal (PDO set 1) or the Spark Multimode microplate reader (TECAN) at 800 ms integration time (PDO set 2).

Assay [8] relates to PDO UME051. Put plainly: PDO viability assay (CellTiter-Glo, 72 h). Format: cell-based, human. Also noted: Curve bottom: scale not given here. As for the experimental part:
as §1, §2

[9] abbreviates: PDO UME012, GEM + Elimusertib (ATRi) dose1, per replicate.
[10] abbreviates: PDO UME012, GEM + Elimusertib (ATRi) dose2, per replicate.
[11] abbreviates: PDO UME012, GEM + Elimusertib (ATRi) dose3, per replicate.
[12] abbreviates: PDO UME012, GEM alone, per replicate.
The mark [13] stands for this setting: PDO UME051, GEM + Elimusertib (ATRi) dose1, per replicate.
Setting [14] is: PDO UME051, GEM + Elimusertib (ATRi) dose2, per replicate.
The mark [15] stands for this setting: PDO UME051, GEM + Elimusertib (ATRi) dose3, per replicate.
The mark [16] stands for this setting: PDO UME051, GEM alone, per replicate.

Several values for one entry are separate records, joined by “and”; a condition that tells them apart may be missing. Equal values may be shown once. Read-outs that look alike come from different tables or passages of the source.
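For Curve top in this document: fraction of plate-wise median vehicle signal.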

On to `COc1cc(N2CCC(N3CCN(C)CC3)CC2)ccc1Nc1ncc(Cl)c(Nc2ccccc2P(C)(C)=O)n1` [Brigatinib], for which the EC50 was 162 nM in assay [1] and 373 nM in assay [2]. Also, the results for the pKDapp in assay [1] and in assay [2] were 6.93 and 6.86, respectively. Moreover, the Kd in assay [1] (read-out: KDapp) is 118 nM; in assay [2] (read-out: KDapp), 139 nM.
On to `C[C@]12O[C@H](C[C@]1(O)CO)n1c3ccccc3c3c4c(c5c6ccccc6n2c5c31)CNC4=O` [Lestaurtinib], for which the EC50 is 2330 nM in assay [3], 373 nM in assay [4], […] in assay [5] and 73 nM in assay [6].
With `Nc1ccn([C@@H]2O[C@H](CO)[C@@H](O)C2(F)F)c(=O)n1` [GEM, Gemcitabine], the EC50 was 12.6 nM in assay [7] (Homo sapiens, PDO UME012, GEM + Elimusertib (ATRi) dose1, mean of replicates, read-out: EC50 mean); 11.3 nM in assay [7] (Homo sapiens, PDO UME012, GEM + Elimusertib (ATRi) dose1, per replicate, read-out: EC50); 11.2 nM in assay [7] (Homo sapiens, PDO UME012, GEM + Elimusertib (ATRi) dose1, per replicate, read-out: pEC50 (converted)); 3.06 nM in assay [7] (Homo sapiens, PDO UME012, GEM + Elimusertib (ATRi) dose2, mean of replicates, read-out: EC50 mean); 3.37 nM in assay [7] (Homo sapiens, PDO UME012, GEM + Elimusertib (ATRi) dose2, per replicate, read-out: EC50); 3.39 nM in assay [7] (Homo sapiens, PDO UME012, GEM + Elimusertib (ATRi) dose2, per replicate, read-out: pEC50 (converted)). Moreover, the EC50 in assay [7] (Homo sapiens, PDO UME012, GEM + Elimusertib (ATRi) dose3, mean of replicates, read-out: EC50 mean) was 2.42 nM; in assay [7] (Homo sapiens, PDO UME012, GEM alone, mean of replicates, read-out: EC50 mean) it was 29.1 nM; in assay [7] (Homo sapiens, PDO UME012, GEM alone, read-out: EC50 mean) it was 29.1 nM; in assay [7] (PDO UME012, GEM + Elimusertib (ATRi) dose1, per replicate, read-out: EC50), 15.7 nM and 14.8 nM and 8.69 nM; in assay [7] (PDO UME012, GEM + Elimusertib (ATRi) dose2, per replicate, read-out: EC50), 3.54 nM and 2.28 nM; in assay [7] (PDO UME012, GEM + Elimusertib (ATRi) dose3, per replicate, read-out: EC50), 3.57 nM and 1.25 nM and 2.45 nM. The EC50 was 7.11 nM and 51.3 nM and 30.5 nM and 27.6 nM in assay [7] (PDO UME012, GEM alone, per replicate, read-out: EC50); 34.9 nM in assay [8] (Homo sapiens, PDO UME051, GEM + Elimusertib (ATRi) dose1, mean of replicates, read-out: EC50 mean); 15.3 nM in assay [8] (Homo sapiens, PDO UME051, GEM + Elimusertib (ATRi) dose2, mean of replicates, read-out: EC50 mean); 8.3 nM in assay [8] (Homo sapiens, PDO UME051, GEM + Elimusertib (ATRi) dose3, mean of replicates, read-out: EC50 mean); 33.8 nM in assay [8] (Homo sapiens, PDO UME051, GEM alone, mean of replicates, read-out: EC50 mean); 33.8 nM in assay [8] (Homo sapiens, PDO UME051, GEM alone, read-out: EC50 mean). The EC50 in assay [8] (PDO UME051, GEM + Elimusertib (ATRi) dose1, per replicate, read-out: EC50) was 61.5 nM and 16.6 nM and 29.1 nM and 61.4 nM and 25.6 nM and 36.7 nM and 21.4 nM and 27.2 nM; in assay [8] (PDO UME051, GEM + Elimusertib (ATRi) dose3, per replicate, read-out: EC50) it was 6.82 nM and 3.16 nM and 20 nM and 13.8 nM and 5.24 nM and 6.23 nM and 5.82 nM and 5.38 nM; in assay [8] (PDO UME051, GEM alone, per replicate, read-out: EC50) it was 27.8 nM and 28.8 nM and 47.2 nM and 24.7 nM and 49.9 nM and 54.4 nM and 18.1 nM and 19.1 nM. The Curve bottom in assay [7] (setting [9]) was 11.29 and 15.69 and 14.76 and 8.69; in assay [7] (setting [10]), 3.37 and 3.54 and 2.28; in assay [7] (setting [11]) it was 3.57 and 1.25 and 2.45; in assay [8] (setting [13]), 61.54 and 16.58 and 29.10 and 61.40 and 25.59 and 36.68 and 21.39 and 27.20; in assay [8] (setting [14]), 15.70 and 19.38 and 5.56 and 12.34 and 19.98 and 22.85 and 24.50 and 1.89; in assay [8] (setting [15]), 6.82 and 3.16 and 19.99 and 13.79 and 5.24 and 6.23 and 5.82 and 5.38. Further, the Curve bottom in assay [8] (setting [16]) was 27.81 and 28.79 and 47.23 and 24.70 and 49.88 and 54.38 and 18.12 and 19.12. The Curve slope in assay [7] (setting [9]) was 0.09 and 0.08 and 0.07; in assay [7] (setting [10]), 0.0214 and 0.0222 and 0.0167; in assay [7] (setting [11]), 0.02 and 0.05 and 0.0372; in assay [7] (setting [12]), 0.62 and 0.42 and 0.70 and 0.52; in assay [8] (setting [13]) it was 0.20 and 0.21 and 0.19 and 0.27 and 0.15 and 0.25 and 0.16; in assay [8] (setting [14]), 0.23 and 0.20 and 0.22 and 0.26 and 0.21 and 0.14 and 0.30. The Curve slope in assay [8] (setting [15]) is 0.26 and 0.20 and 0.24 and 0.23 and 0.30 and 0.15 and 0.16; in assay [8] (setting [16]), 0.26 and 0.29 and 0.22 and 0.35 and 0.23 and 0.21 and 0.27 and 0.19. Besides, the Curve top in assay [7] (setting [9]) was 1.40 and 1.29 and 1.32 and 1.45; in assay [7] (setting [10]), 1.13 and 1.28 and 1.51; in assay [7] (setting [11]) it was 1.09 and 0.99 and 1.02; in assay [7] (setting [12]) it was 1.21 and 1.18 and 1.06 and 1.19; in assay [8] (setting [13]) it was 1.01 and 0.92 and 0.96 and 0.94 and 1.28 and 1.37; in assay [8] (setting [14]), 1.02 and 0.95 and 0.89 and 1.03. Besides, the Curve top was 0.75 and 0.88 and 1.32 and 1.31 and 0.95 and 0.93 in assay [8] (setting [15]); 1.27 and 0.99 and 0.93 and 0.97 in assay [8] (setting [16]). The negative-log EC50 (pEC50) in assay [7] (setting [9]) is 7.80 and 7.83 and 8.06; in assay [7] (setting [10]), 8.45 and 8.64; in assay [7] (setting [11]) it was 8.45 and 8.90 and 8.61; in assay [7] (setting [12]), 8.15 and 7.29 and 7.52 and 7.56; in assay [8] (setting [13]) it was 7.21 and 7.78 and 7.54 and 7.59 and 7.44 and 7.67 and 7.57; in assay [8] (setting [15]), 8.17 and 8.50 and 7.70 and 7.86 and 8.28 and 8.21 and 8.24 and 8.27. Further, in assay [8] (setting [16]), the pEC50 was 7.56 and 7.54 and 7.33 and 7.61 and 7.30 and 7.26 and 7.74 and 7.72.

Source of the values: article PMC11876601 (Molecular Systems Biology, 2025).
